Among the data in the Deep4Chem optical property database are photoluminescence quantum yield values, retold here.

The nature of the data set: photoluminescence quantum yield (fraction); solvent given as SMILES.
Setting [1] is: in O=P(c1ccccc1)(c1ccccc1)c1ccccc1Oc1ccccc1P(=O)(c1ccccc1)c1ccccc1.

For `COc1ccc2c(c1)c1cc(OC)ccc1c1c2c2c(C(=O)NC(C)(C)C)ccc(C(=O)NC(C)(C)C)c2c2c3ccc(OC)cc3c3cc(OC)ccc3c21`, for the setting “in ClCCl”, the photoluminescence quantum yield stood at 0.1.

`COC(=O)c1cc(=O)n(C)c2cc(-c3ccc(Oc4ccccc4)cc3)sc12`: the photoluminescence quantum yield is, setting by setting: (in CC#N) 0.63; (in ClCCl) 0.83.

`COC(=O)c1ccc(-c2cc3ccc4cccc5ccc(c2)c3c45)cc1` showed a photoluminescence quantum yield (in Cc1ccccc1) of 0.43. Where the note is “in ClCCl”, `COc1ccc2cc(/C=C/C3=CC(c4ccccc4)=[O+][B-](F)(F)O3)ccc2c1` came in with a photoluminescence quantum yield of 0.43. As for `c1ccc([B-]2(c3ccccc3)Oc3ccc4ccccc4c3-c3c4ccccc4cn[n+]32)cc1`, the photoluminescence quantum yield (in Cc1ccccc1) was 0.15. Under “in ClCCl”, `COCCOCCOCCOCC(COCCOCCOCCOC)Oc1cc(/C=C/c2ccc(C=C(C#N)C#N)cc2)c(OC(COCCOCCOCCOC)COCCOCCOCCOC)cc1/C=C/c1ccc(C=C(C#N)C#N)cc1` had a photoluminescence quantum yield of 0.53. The compound `CC(C)(C)c1cc(C(C)(C)C)c(-c2nnc(-c3ccc(-n4c5ccccc5c5ccccc54)cc3)o2)c(C(C)(C)C)c1` yielded a photoluminescence quantum yield (in Cc1ccccc1) of 0.62. Regarding `COc1ccc(C2=Cc3ccccc3[Si]2(c2ccccc2)c2ccccc2)cc1`, the photoluminescence quantum yield (in ClCCl) was 0.99. In turn, `c1ccc(N(c2ccccc2)c2ccc(-c3cnc(-c4ccc(N(c5ccccc5)c5ccccc5)cc4)s3)cc2)cc1` displayed a photoluminescence quantum yield (in CO) of 0.41. For `CC(C)(C)c1cc(/C2=C3\C=CC(=N3)/C(c3ccc([N+](=O)[O-])cc3)=c3/cc/c([nH]3)=C(\c3ccc([N+](=O)[O-])cc3)C3=N/C(=C(/c4cc(C(C)(C)C)cc(C(C)(C)C)c4)c4cc2c[nH]4)C=C3)cc(C(C)(C)C)c1`, the photoluminescence quantum yield (in CC(=O)N(C)C) stood at 0.024. As for `CC(C)(C)c1ccc2c(c1)c1cc(C(C)(C)C)ccc1n2-c1ccccc1-c1nc(-c2ccccc2-n2c3ccc(C(C)(C)C)cc3c3cc(C(C)(C)C)ccc32)nc(-c2ccccc2P(=O)(c2ccccc2)c2ccccc2)n1`, the photoluminescence quantum yield under setting [1] was 0.45. In turn, `CC1(C)c2ccccc2N(c2ccc(-c3nc4cccc5c4n3-c3ccccc3C5(C)C)cc2)c2ccccc21` yielded a photoluminescence quantum yield (in Cc1ccccc1) of 0.34 and a photoluminescence quantum yield under setting [1] of 0.51. In turn, `CC(C)(C)NC(=O)c1ccc(F)c2ccc3c4ccccc4c4ccccc4c3c12` showed a photoluminescence quantum yield (in ClCCl) of 0.04. With `CC(C)[Si](C#Cc1c2ccccc2c(C#C[Si](C(C)C)(C(C)C)C(C)C)c2nc3c4ccccc4c(=O)c4ccccc4c3nc12)(C(C)C)C(C)C`, under “in ClCCl”, the photoluminescence quantum yield was 0.75.

For `Nc1ccc2cn[nH]c2c1`, the photoluminescence quantum yield is, setting by setting: (in C1CCCCC1) 0.34; (in CC#N) 0.33; (in CO) 0.31; (in O) 0.39. Take `CN(C)c1ccc(C#Cc2ccc(-c3nc(C#N)c(C#N)n3C)cc2)cc1`: the photoluminescence quantum yield by setting is: (in C1CCCCC1) 0.84; (in CC#N) 0.005; (in CO) 0.003; (in ClC(Cl)Cl) 0.88. `CCCCN1C(=O)c2cc(Oc3ccc(C(C)(C)C)cc3)c3c4c(Oc5ccc(C(C)(C)C)cc5)cc5c(=O)[nH]/c(=C\c6ccc7ccccc7n6)c6cc(Oc7ccc(C(C)(C)C)cc7)c(c7c(Oc8ccc(C(C)(C)C)cc8)cc(c2c37)C1=O)c4c56`: the photoluminescence quantum yield reads like this: (in C1CCOC1) 0.3; (in Cc1ccccc1) 0.313; (in ClCCl) 0.332. Regarding `c1ccc(N(c2ccccc2)c2ccc(-c3ccc4c(c3)C3(c5cc(-c6ccc(N(c7ccccc7)c7ccccc7)cc6)ccc5-4)c4ccccc4N(c4ccccc4)c4ccccc43)cc2)cc1`, the photoluminescence quantum yield is 0.82 (in ClCCl) and 0.86 (in c1cc(-n2c3ccccc3c3ccccc32)cc(-n2c3ccccc3c3ccccc32)c1). The compound `N#Cc1ccc(-c2cc3c(ccc4sccc43)s2)cc1` had a photoluminescence quantum yield (in ClCCl) of 0.22. Still for that read-out and setting: as for `COc1ccc(/C=C/c2nc(-c3ccc([N+](=O)[O-])cc3)[nH]c2/C=C/c2ccc(OC)cc2)cc1`, the figure is 0.

`CCOC(=O)CN1C(=O)C2=C(c3ccc(N4CCCCC4)cc3)N(CC(=O)OCC)C(=O)C2=C1c1ccc(C#N)cc1`: the photoluminescence quantum yield was found to be 0.01 (in CC#N), 0.001 (in CS(C)=O) and 0.16 (in Cc1ccccc1). Consider `CCCCc1cc(-c2cccc(COC)c2)oc1-c1cccc(COC)c1`, for which the photoluminescence quantum yield (in ClC(Cl)Cl) amounted to 0.87. The compound `COc1ccc(-c2ccc(-c3ccc(OC)cc3)cc2)cc1` showed a photoluminescence quantum yield (in C1CCCCC1) of 0.64.

For the compound `CN1C(=O)/C(=C/c2ccncc2)N=C1c1ccccc1`, the photoluminescence quantum yield is, setting by setting: (in C1COCCO1) 0.466; (in CC#N) 0.048; (in CCO) 0.073; (in CCOC(C)=O) 0.186; (in O) 0.0069.

Take `Clc1ccccc1-c1nc2sc3ccccc3c2s1`: the photoluminescence quantum yield (in CS(C)=O) was determined as 0.48.

In turn, `O=c1c2cc(F)c(O)cc2oc2cc(O)c(F)cc12` had a photoluminescence quantum yield (in CCO) of 0.26. Consider `CCCCCCCCOc1ccc(-c2c3c4n(c(-c5ccc(OCCCCCCCC)cc5)c3c3n2[B-](F)(F)[n+]2c(ccc5cc(C(C)(C)C)ccc52)C=3C#N)[B-](F)(F)[n+]2c(ccc3cc(C(C)(C)C)ccc32)C=4C#N)cc1`, for which the photoluminescence quantum yield (in ClC(Cl)Cl) stood at 0.59. In the case of `CC1(C)c2ccccc2N(c2ccc(-c3ccc4c(c3)c3cc(-c5ccc(N6c7ccccc7C(C)(C)c7ccccc76)cc5)ccc3c3nc(C#N)c(C#N)nc43)cc2)c2ccccc21`, the photoluminescence quantum yield runs as follows: (in Cc1ccccc1) 0.33; (in O=P(c1ccccc1)(c1ccccc1)c1cccc(-c2cc(-n3c4ccccc4c4ccccc43)cc(-n3c4ccccc4c4ccccc43)c2)n1) 0.65. In turn, `Fc1nc(F)c(F)c(/C=C2/C(c3c(F)c(F)nc(F)c3F)=Cc3ccccc32)c1F` returned a photoluminescence quantum yield (in CC#N) of 0.01.

In the case of `O=C1/C(=C2\Sc3ccccc3C2=O)Sc2ccccc21`, the photoluminescence quantum yield (in C1COCCO1) turned out to be 0.54; the photoluminescence quantum yield (in CN(C)C=O) came to 0.353; the photoluminescence quantum yield (in CO) is 0.035; the photoluminescence quantum yield (in CS(C)=O) amounted to 0.013; the photoluminescence quantum yield (in c1ccccc1) came to 0.72. For the compound `CC(C)(C)c1ccc2c(c1)c1cc(C(C)(C)C)ccc1n2-c1ccc(N(c2ccc(-c3ccc(-c4ccc(N(c5ccc(-n6c7ccc(C(C)(C)C)cc7c7cc(C(C)(C)C)ccc76)cc5)c5ccc(-n6c7ccc(C(C)(C)C)cc7c7cc(C(C)(C)C)ccc76)cc5)cc4)c4nsnc34)cc2)c2ccc(-n3c4ccc(C(C)(C)C)cc4c4cc(C(C)(C)C)ccc43)cc2)cc1`, the photoluminescence quantum yield (in ClCCl) was 0.05.

Turning to `c1ccc(-c2nn(-c3ccccc3)c3nc4ccccc4cc23)cc1`, the photoluminescence quantum yield is, setting by setting: (in C1CCCCC1) 0.86; (in C1CCOC1) 0.9; (in CC#N) 0.73; (in CC(C)=O) 0.85; (in CCCCCl) 0.91; (in CCCCOCCCC) 0.88. The compound further yielded a photoluminescence quantum yield (in CN(C)C=O) of 0.78. `C(=C\c1ccncn1)/c1ccc(-c2ccco2)cc1` gave a photoluminescence quantum yield (in ClCCl) of 0.01. Under “in C1CCOC1”, `N#Cc1c(N2CCCCC2)cc(-c2cccc3ccccc23)c2c1CCc1ccccc1-2` gave a photoluminescence quantum yield of 0.42.

Turning to `C1=Cc2ccccc2C(=Cc2ccc(-c3cc(-c4ccc(C=C5c6ccccc6C=Cc6ccccc65)cc4)c(-c4ccc(C=C5c6ccccc6C=Cc6ccccc65)cc4)cc3-c3ccc(C=C4c5ccccc5C=Cc5ccccc54)cc3)cc2)c2ccccc21`, under “in C1CCOC1”, the photoluminescence quantum yield came out at 0.0016. Compound `CC(=O)OCCN1C(=O)c2cccc3c(Oc4ccccc4C)ccc(c23)C1=O` showed a photoluminescence quantum yield (in ClC(Cl)Cl) of 0.12. Compound `O=C1NC(c2ccccc2)=C/C1=C\c1ccccc1` gave a photoluminescence quantum yield (in C1COCCO1) of 0.012. For `CN1/C(=C\C=C\C2=C3C=CC(c4ccccc4)=[N+]3[B-](F)(F)n3c2ccc3-c2ccccc2)C(C)(C)c2ccccc21`, the photoluminescence quantum yield (in CC#N) turned out to be 0.1. For the compound `C(=C\c1ncnc2ccccc12)/c1ccc(N(c2ccccc2)c2ccccc2)cc1`, under “in ClCCl”, the photoluminescence quantum yield was found to be 0.25.

Take `c1cc2c3c(c1)ccc1[n+]3[B-]3(Oc4cccc5ccc6[n+](c45)[B-](O2)(O3)n2c-6cc3c4ccccc4c4ccccc4c32)n2c-1cc1c3ccccc3c3ccccc3c12`: the photoluminescence quantum yield (in ClCCl) was determined as 0.89. With `CCNc1cc2oc(=O)c3c(=O)oc4ccccc4c3c2cc1C`, the photoluminescence quantum yield by setting is: (in CS(C)=O) 0.27; (in ClCCl) 0.84. For the compound `C(#Cc1cccs1)c1ncc(-c2ccccc2)o1`, where the note is “in ClCCl”, the photoluminescence quantum yield stood at 0.

`C(=C\c1cc2ccccc2c2ccccc12)/c1c2ccccc2cc2ccccc12` came in with a photoluminescence quantum yield (in C1CCOC1) of 0.56. `CC(C)[Si](C#Cc1ccc(C#C[Si](C(C)C)(C(C)C)C(C)C)c2nc3c(nc12)Cc1ccccc1-3)(C(C)C)C(C)C` gave a photoluminescence quantum yield (in CCCCCC) of 0.04. Regarding `C(=C(c1ccccc1)c1ccccc1)c1ccc(-c2cc(-c3ccc(C=C(c4ccccc4)c4ccccc4)cc3)c(-c3ccc(C=C(c4ccccc4)c4ccccc4)cc3)cc2-c2ccc(C=C(c3ccccc3)c3ccccc3)cc2)cc1`, under “in C1CCOC1”, the photoluminescence quantum yield is 0.0282. The compound `CC(C)(C)c1ccc2c(c1)c1cc(C(C)(C)C)ccc1n2-c1cc(-n2c3ccc(C(C)(C)C)cc3c3cc(C(C)(C)C)ccc32)c(-n2c3ccc(C(C)(C)C)cc3c3cc(C(C)(C)C)ccc32)c(C#N)c1-n1c2ccc(C(C)(C)C)cc2c2cc(C(C)(C)C)ccc21` returned a photoluminescence quantum yield (in Cc1ccccc1) of 0.68. For the setting “in CO”, `CC1=CC(/C=C/c2ccc(OCCCN=[N+]=[N-])cc2)=[N+]2C1=C(c1ccccc1)c1c(C)cc(C)n1[B-]2(F)F` yielded a photoluminescence quantum yield of 1. For the compound `COc1ccc(/C=C/C2=[O+][B-](F)(F)OC(/C=C/c3ccc(OC)cc3)=C2c2ccccc2)cc1`, the photoluminescence quantum yield (in CC#N) came out at 0.42; the photoluminescence quantum yield (in CC(C)=O) was found to be 0.41; the photoluminescence quantum yield (in CCOC(C)=O) came to 0.34; the photoluminescence quantum yield (in CCOCC) amounted to 0.27; the photoluminescence quantum yield (in ClC(Cl)(Cl)Cl) was determined as 0.24; the photoluminescence quantum yield (in ClCCl) is 0.41. For the setting “in O”, `N#Cc1c(N2CCCC2)cc(-c2ccccc2)c2c1-c1cccc3cccc-2c13` came in with a photoluminescence quantum yield of 0.25.
